According to patent publication US6583180B2, “Glucocorticoid receptor modulators” (Abbott Laboratories, priority 2001, dated 2003):

Biological target: T1, Human glucocorticoid receptors (Homo sapiens, UniProt P04150)
T1 construct: made in house; host or cells: Sf9 insect cells, recombinant baculovirus (BAC-TO-BAC)
T1 sequence (P04150 1-777): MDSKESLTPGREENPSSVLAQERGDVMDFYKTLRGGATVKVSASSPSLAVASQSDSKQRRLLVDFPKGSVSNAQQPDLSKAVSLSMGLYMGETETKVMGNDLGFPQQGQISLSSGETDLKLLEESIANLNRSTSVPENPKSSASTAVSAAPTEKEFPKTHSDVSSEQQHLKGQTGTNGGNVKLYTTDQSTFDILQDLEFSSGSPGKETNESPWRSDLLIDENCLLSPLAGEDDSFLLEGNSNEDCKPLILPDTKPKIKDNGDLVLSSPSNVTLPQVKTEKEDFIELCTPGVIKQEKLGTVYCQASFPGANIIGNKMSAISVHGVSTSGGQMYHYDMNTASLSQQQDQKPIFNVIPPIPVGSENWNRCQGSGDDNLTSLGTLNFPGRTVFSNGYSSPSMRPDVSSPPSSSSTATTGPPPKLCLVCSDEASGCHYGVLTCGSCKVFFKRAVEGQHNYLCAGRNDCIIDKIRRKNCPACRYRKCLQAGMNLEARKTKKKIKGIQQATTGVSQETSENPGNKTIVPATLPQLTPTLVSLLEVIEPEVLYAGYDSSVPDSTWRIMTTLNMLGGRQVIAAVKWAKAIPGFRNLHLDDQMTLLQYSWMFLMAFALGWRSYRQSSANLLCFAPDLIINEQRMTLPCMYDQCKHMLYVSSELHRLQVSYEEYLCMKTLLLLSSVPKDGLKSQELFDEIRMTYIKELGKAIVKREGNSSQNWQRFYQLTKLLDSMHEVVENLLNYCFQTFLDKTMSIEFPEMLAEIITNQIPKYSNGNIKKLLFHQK
Experiment: Radioligand filter binding assay, displacement of 3[H]-dexamethasone from hGR
Conditions: read-out: GR Binding (% Inhibition at 1.7 μM)
Procedure, shortened: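 Recombinant hGR extract from baculovirus-infected Sf9 cells (final ~1 nM receptor) incubated with ³H-dexamethasone and test compound dilutions in duplicate, EDTA/phosphate pH 8 buffer with MTG, overnight (15-20 h) at +4° C. Bound label collected on PEI-treated GF/B filters and scintillation-counted; IC50 from four-parameter fit of corrected cpm.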

**Q.** How did the inhibition at 1.7 µM turn out when Cc1c(NS(C)(=O)=O)cccc1N(Cc1ccc(OCCc2ccccc2)cc1)Cc1ccc(F)cc1F [Example 158, N-(3-{(2,4-difluorobenzyl)[4-(2-phenylethoxy)benzyl]amino}-2-methylphenyl)methanesulfonamide] was run?
**A.** Its inhibition at 1.7 µM is 93.1%.

**Q.** Which inhibition at 1.7 µM does the source give for Cc1c(NS(C)(=O)=O)cccc1N(Cc1ccccc1)Cc1ccc(Oc2cccc(OC3CCOC3=O)c2)cc1 (centres unmarked) [Example 112, N-{3-[benzyl(4-{3-[(2-oxotetrahydrofuran-3-yl)oxy]phenoxy}benzyl)amino]-2-methylphenyl}methanesulfonamide] here?
**A.** Its inhibition at 1.7 µM is 96.9%.

**Q.** For CCOC(=O)COc1cc(Oc2ccc(CN(Cc3ccc(F)cc3F)c3cccc(NS(C)(=O)=O)c3C)cc2)ccc1Cl [Example 241, ethyl (2-chloro-5-{4-[((2,4-difluorobenzyl){2-methyl-3-[(methylsulfonyl)amino]phenyl}amino)methyl]phenoxy}phenoxy)acetate], which inhibition at 1.7 µM is on record?
**A.** Its inhibition at 1.7 µM is 90.6%.

**Q.** How did the inhibition at 1.7 µM turn out when Cc1c(NS(C)(=O)=O)cccc1N(Cc1ccccc1)Cc1ccc(Oc2ccc(OCCCCC(=O)N[C@@H](CO)C(=O)O)cc2)cc1 [Example 269, N-[5-(4-{4-[(benzyl{2-methyl-3-[(methylsulfonyl)amino]phenyl}amino)methyl]phenoxy}phenoxy)pentanoyl]-L-serine] was run?
**A.** Its inhibition at 1.7 µM is 90.7%.

**Q.** How did the inhibition at 1.7 µM turn out when Cc1c(NS(C)(=O)=O)cccc1N(Cc1ccccc1)Cc1ccc(Oc2ccc(Cl)c(OCCCC(=O)NCCCC(=O)O)c2)cc1 [Example 319, 4-((4-(5-(4-((benzyl(2-methyl-3-((methylsulfonyl)amino)phenyl)amino)methyl)phenoxy)-2-chlorophenoxy)butanoyl)amino)butanoic acid] was run?
**A.** The inhibition at 1.7 µM was 96.4%.

**Q.** For Cc1c(NS(C)(=O)=O)cccc1N(Cc1ccccc1)Cc1ccc(Oc2ccc(OCC(=O)NCCCC(=O)O)cc2)cc1 [Example 271, 4-{[(4-{4-[(benzyl{2-methyl-3-[(methylsulfonyl)amino]phenyl}amino)methyl]phenoxy}phenoxy)acetyl]amino}butanoic acid], which inhibition at 1.7 µM is on record?
**A.** The inhibition at 1.7 µM was 91%.

**Q.** Which inhibition at 1.7 µM does the source give for Cc1c(NS(C)(=O)=O)cccc1N(Cc1ccccc1)Cc1ccc(Oc2cccc(OCCCCC(=O)O)c2)cc1 [Example 117, 5-(3-{4-[(benzyl{2-methyl-3-[(methylsulfonyl)amino]phenyl}amino)methyl]phenoxyl}phenoxy)pentanoic acid] here?
**A.** Its inhibition at 1.7 µM is 98.1%.

**Q.** Which inhibition at 1.7 µM does the source give for Cc1c(NS(C)(=O)=O)cccc1N(Cc1ccccc1)Cc1ccc(Oc2cccc(OC[C@@H]3CCCN3C)c2)cc1 [Example 289, N-(3-{benzyl[4-(3-{[(2S)-1-methylpyrrolidin-2-yl]methoxy}phenoxy)benzyl]amino}-2-methylphenyl)methanesulfonamide] here?
**A.** Its inhibition at 1.7 µM is 87.8%.

**Q.** For Cc1c(NS(C)(=O)=O)cccc1N(Cc1ccccc1)Cc1ccc(C(=O)c2cccc(OCC3CCCO3)c2)cc1 (centres unmarked) [Example 244, N-[3-(benzyl{4-[3-(tetrahydrofuran-2-ylmethoxy)benzoyl]benzyl}amino)-2-methylphenyl]methanesulfonamide], which inhibition at 1.7 µM is on record?
**A.** The inhibition at 1.7 µM was 95.3%.

**Q.** For Cc1ncsc1CCOc1cccc(C(=O)c2ccc(CN(Cc3ccccc3)c3cccc(NS(C)(=O)=O)c3C)cc2)c1 [Example 249, N-{3-[benzyl(4-{3-[2-(4-methyl-1,3-thiazol-5-yl)ethoxy]benzoyl}benzyl)amino]-2-methylphenyl}methanesulfonamide], which inhibition at 1.7 µM is on record?
**A.** The inhibition at 1.7 µM was 95.4%.

**Q.** Which inhibition at 1.7 µM does the source give for Cc1c(NS(C)(=O)=O)cccc1N(Cc1ccc(Oc2cccc(OC[C@@H]3C[C@@H](O)CC(=O)O3)c2)cc1)Cc1ccc(F)cc1F [Example 231, N-(3-((2,4-difluorobenzyl)(4-(3-(((2S,4R)-6-oxo-4-hydroxytetrahydro-2H-pyran-2-yl)methoxy)phenoxy)benzyl)amino)-2-methylphenyl)methanesulfonamide] here?
**A.** The inhibition at 1.7 µM was 96%.

**Q.** With Cc1c(NS(C)(=O)=O)cccc1N(Cc1ccccc1)Cc1ccc(Oc2cccc(OCC3(C)COC3)c2)cc1 [Example 283, N-{3-[benzyl(4-{3-[(3-methyloxetan-3-yl)methoxy]phenoxy}benzyl)amino]-2-methylphenyl}methanesulfonamide] as the compound, how does the inhibition at 1.7 µM read?
**A.** The inhibition at 1.7 µM was 89.7%.

**Q.** With Cc1c(NS(C)(=O)=O)cccc1N(Cc1ccccc1)Cc1ccc(Oc2ccc(OCC(=O)NN)cc2)cc1 [Example 277, N-[3-(benzyl{4-[4-(2-hydrazino-2-oxoethoxy)phenoxy]benzyl}amino)-2-methylphenyl]methanesulfonamide] as the compound, how does the inhibition at 1.7 µM read?
**A.** Its inhibition at 1.7 µM is 90.6%.

**Q.** For Cc1c(NS(C)(=O)=O)cccc1N(Cc1ccccc1)Cc1ccc(Oc2ccc(OCCCC(=O)N[C@H](C(=O)O)C(C)C)cc2)cc1 [Example 256, N-[4-(4-{4-[(benzyl{2-methyl-3-[(methylsulfonyl)amino]phenyl}amino)methyl]phenoxy}phenoxy)butanoyl]-L-valine], which inhibition at 1.7 µM is on record?
**A.** The inhibition at 1.7 µM was 92.6%.

**Q.** For Cc1c(NS(C)(=O)=O)cccc1N(Cc1ccccc1)Cc1ccc(Oc2ccc(OCC(=O)N[C@@H](CO)C(=O)O)cc2)cc1 [Example 275, N-[(4-{4-[(benzyl{2-methyl-3-[(methylsulfonyl)amino]phenyl}amino)methyl]phenoxy}phenoxy)acetyl]-L-serine], which inhibition at 1.7 µM is on record?
**A.** Its inhibition at 1.7 µM is 90.5%.

**Q.** Which inhibition at 1.7 µM does the source give for Cc1c(NS(C)(=O)=O)cccc1N(Cc1ccc(Oc2ccc(Cl)c(OCC(=O)O)c2)cc1)Cc1ccc(Cl)cc1F [Example 310, (2-chloro-5-(4-(((4-chloro-2-fluorobenzyl)(2-methyl-3-((methylsulfonyl)amino)phenyl)amino)methyl)phenoxy)phenoxy)acetic acid] here?
**A.** Its inhibition at 1.7 µM is 97.5%.

**Q.** Cc1c(NS(C)(=O)=O)cccc1N(Cc1ccccc1)Cc1ccc(Oc2cccc(OCCCC(=O)N3CCCCC3C(=O)O)c2)cc1 (centres unmarked) [Example 281, 1-[4-(3-{4-[(benzyl{2-methyl-3-[(methylsulfonyl)amino]phenyl}amino)methyl]phenoxy}phenoxy)butanoyl]piperidine-2-carboxylic acid] was tested. Which inhibition at 1.7 µM did it give?
**A.** Its inhibition at 1.7 µM is 90%.

**Q.** How did the inhibition at 1.7 µM turn out when Cc1c(NS(C)(=O)=O)cccc1N(Cc1ccccc1)Cc1ccc(C(=O)c2ccc(OC[C@H](O)CO)cc2)cc1 [Example 250, N-(3-{benzyl[4-(4-{[(2R)-2,3-dihydroxypropyl]oxy}benzoyl)benzyl]amino}-2-methylphenyl)methanesulfonamide] was run?
**A.** Its inhibition at 1.7 µM is 92.9%.

**Q.** With Cc1c(NS(C)(=O)=O)cccc1N(Cc1ccccc1)Cc1ccc(Oc2ccc(CCC(=O)OCc3ccccc3)cc2)cc1 [Example 98, benzyl 3-(4-{4-[(benzyl{2-methyl-3-[(methylsulfonyl)amino]phenyl}amino)methyl]phenoxy}phenyl)propanoate] as the compound, how does the inhibition at 1.7 µM read?
**A.** Its inhibition at 1.7 µM is 87.4%.

**Q.** Cc1c(NS(C)(=O)=O)cccc1N(Cc1ccccc1)Cc1ccc(Oc2cccc(OCC3CC3C(=O)O)c2)cc1 (centres unmarked) [Example 284, 2-[(3-{4-[(benzyl{2-methyl-3-[(methylsulfonyl)amino]phenyl}amino)methyl]phenoxy}phenoxy)methyl]cyclopropanecarboxylic acid] was tested. Which inhibition at 1.7 µM did it give?
**A.** Its inhibition at 1.7 µM is 89.6%.

**Q.** With Cc1c(NS(C)(=O)=O)cccc1N(Cc1ccccc1)Cc1ccc(Oc2ccc(OCCCC(=O)NCCC(=O)O)cc2)cc1 [Example 252, N-[4-(4-{4-[(benzyl{2-methyl-3-[(methylsulfonyl)amino]phenyl}amino)methyl]phenoxy}phenoxy)butanoyl]-beta-alanine] as the compound, how does the inhibition at 1.7 µM read?
**A.** The inhibition at 1.7 µM was 91.9%.

**Q.** Cc1c(NS(C)(=O)=O)cccc1N(Cc1ccccc1)Cc1ccc(Oc2ccc(OCCCCC(=O)N[C@@H](CCC(=O)O)C(=O)O)cc2)cc1 [Example 265, N-[5-(4-{4-[(benzyl{2-methyl-3-[(methylsulfonyl)amino]phenyl}amino)methyl]phenoxy}phenoxy)pentanoyl]-L-glutamic acid] was tested. Which inhibition at 1.7 µM did it give?
**A.** The inhibition at 1.7 µM was 90%.

**Q.** Cc1c(NS(C)(=O)=O)cccc1N(Cc1ccccc1)Cc1ccc(Oc2ccc(OCC(=O)NC3CCOC3=O)cc2)cc1 (centres unmarked) [Example 274, 2-(4-{4-[(benzyl{2-methyl-3-[(methylsulfonyl)amino]phenyl}amino)methyl]phenoxy}phenoxy)-N-(2-oxotetrahydrofuran-3-yl)acetamide] was tested. Which inhibition at 1.7 µM did it give?
**A.** The inhibition at 1.7 µM was 89.9%.

**Q.** For Cc1c(NS(C)(=O)=O)cccc1N(Cc1ccc(OCc2ccc3c(c2)OCO3)cc1)Cc1ccc(F)cc1F [Example 156, N-{3-[[4-(1,3-benzodioxol-5-ylmethoxy)benzyl](2,4-difluorobenzyl)amino]-2-methylphenyl}methanesulfonamide], which inhibition at 1.7 µM is on record?
**A.** The inhibition at 1.7 µM was 94.9%.

**Q.** With Cc1c(NS(C)(=O)=O)cccc1N(Cc1ccccc1)Cc1ccc(Oc2cccc(OCCCC(=O)N3CCC[C@H]3C(=O)O)c2)cc1 [Example 282, 1-[4-(3-{4-[(benzyl{2-methyl-3-[(methylsulfonyl)amino]phenyl}amino)methyl]phenoxy}phenoxy)butanoyl]proline] as the compound, how does the inhibition at 1.7 µM read?
**A.** The inhibition at 1.7 µM was 89.9%.

**Q.** How did the inhibition at 1.7 µM turn out when CCOC(=O)CN(C)C(=O)CCCOc1cccc(Oc2ccc(CN(Cc3ccccc3)c3cccc(NS(C)(=O)=O)c3C)cc2)c1 [Example 239, ethyl N-[4-(3-{4-[(benzyl{2-methyl-3-[(methylsulfonyl)amino]phenyl}amino)methyl]phenoxy}phenoxy)butanoyl]-N-methylglycinate] was run?
**A.** Its inhibition at 1.7 µM is 93.4%.
